Measured values: ChEMBL document CHEMBL1132430, “Protein kinase C ligands based on tetrahydrofuran templates containing a new set of phorbol ester pharmacophores” (J Med Chem, 1999)
pKi: −log10 of the molar value.

What follows are compounds tested against Protein kinase C alpha type (Homo sapiens, UniProt P17252) (assay: Displacement of [3H-20]-phorbol 12,13-dibutyrate(PDBU) from recombinant Protein kinase C alpha).

| Structure (SMILES) | pKi |
| --- | --- |
| CCCCCCCCCCCCCC(=O)OC[C@]1(CO)CC[C@H](CC(=O)OC)O1 | 5.57 |
| CCCCCCCCCCCCCCOC(=O)C[C@@H]1CC[C@@](CO)(COC(=O)CCCCC)O1 | 4.89 |
| CCCCCCCCCCCCCCOC(=O)C[C@H]1CC[C@@](CO)(COC(=O)CCCCC)O1 | 5.62 |
| CCCCCCCCCCCCCC(=O)OC[C@]1(CO)CC[C@@H](CC(=O)OC)O1 | 4.97 |

Continued, values first:

| pKi | Structure (SMILES) |
| --- | --- |
| 5.73 | CCCCCCCC/C=C\CCCCCCCCOC(=O)/C=C1/COC(CO)(COC(C)=O)C1 (stereo not drawn) |
| 6.46 | CCCCCCCCCCCCCC(=O)OCC1(CO)C/C(=C/C(=O)OC)CO1 (stereo not drawn) |
| 6.46 | CCCCCCCCCCCCCC(=O)OCC1(CO)C/C(=C\C(=O)OC)CO1 (stereo not drawn) |
| 6.07 | CCCCCCCC/C=C\CCCCCCCCOC(=O)/C=C1\COC(CO)(COC(C)=O)C1 (stereo not drawn) |
